The structures appear in SMILES notation.

Data set [1] deals with AR 1.0 cells. The experiment in a line: Potentiation of doxorubicin toxicity: proliferation assay (sulphorhodamine B). The format is cell-based, mouse. The text has this:
(a) Selected compounds of formula (I) were examined for their ability to potentiate the toxicity of doxorubicin in AR 1.0 cells.

In data set [2] the test system is AR 1.0 cells. The experiment in a line: Drug accumulation assay: daunorubicin accumulation in AR 1.0 cells. The data set is classed as cell-based. The note with it: Mus musculus, 100% = accumulation with verapamil 100 μM, 1 hr, 37° C. In a few lines:
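Daunorubicin accumulation was measured in cells plated 48 h beforehand. These were AR 1.0 cells, an MDR-resistant derivative of mouse EMT6 mammary carcinoma, cultured at 37 °C in 5% CO2 in RPMI 1640 plus 10% foetal calf serum and 2 mM glutamine.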

[3] abbreviates: Mus musculus, 96 h, compound alone, four day proliferation, read-out: Compound Toxicity (IC50).
Setting [4] is: with fixed doxorubicin 0.34 μm, four days, 5760 min, read-out: Toxicity with Cytotoxic Agent (IC50).

In general, IC50 refers to the concentration at which inhibition is half-maximal. For the compound `CCC(=O)c1cnc(C(=O)Nc2ccccc2C(=O)Nc2ccc(CCN3CCc4cc(OC)c(OC)cc4C3)cc2)cn1` [compound 9569, 5-Propionyl-pyrazine-2-carboxylic acid (2-{4-[2-(6,7-dimethoxy-3,4-dihydro-1H-isoquinolin-2-yl)-ethyl]-phenylcarbamoyl}-phenyl)-amide], the IC50 with AR 1.0 cells [1] (setting [3]) stood at 190 nM; in the data set on AR 1.0 cells [1] (setting [4]), 8 nM; in the data set on AR 1.0 cells [2] it was 930 nM.
Regarding `COc1cc2c(cc1OC)CN(CCc1ccc(NC(=O)c3ccccc3NC(=O)c3ccsc3)cc1)CC2` [compound 9492, Thiophene-3-carboxylic acid (2-{4-[2-(6,7-dimethoxy-3,4-dihydro-1H-isoquinolin-2-yl)-ethyl]-phenylcarbamoyl}-phenyl)-amide], the values for the half-maximal inhibitory concentration (IC50) in the data set with AR 1.0 cells [1] (setting [3]), in the data set on AR 1.0 cells [1] (setting [4]) and in the data set on AR 1.0 cells [2] were 3000 nM, 20 nM and 1000 nM, respectively.
Taken in the same sequence, the figures for `COc1cc2c(cc1OC)CN(CCNC(=O)c1cc(-c3ccccc3)ccc1NC(=O)c1ccc(C(C)C)cc1)CC2` [compound 9432, 2-(4-Isopropyl-benzoylamino)-N-[2-(6,7-dimethoxy-3,4-dihydro-1H-isoquinolin-2-yl)-ethyl]-5-phenyl-benzamide] were 35000 nM, 200 nM and 3200 nM.
For `COc1cc2c(cc1OC)CN(CCc1ccc(NC(=O)c3ccccc3NC(=O)c3ccccn3)cc1)CC2` [compound 9472, Pyridine-2-carboxylic acid (2-{4-[2-(6,7-dimethoxy-3,4-dihydro-1H-isoquinolin-2-yl)-ethyl]-phenylcarbamoyl}-phenyl)-amide], the values for the half-maximal inhibitory concentration (IC50) with AR 1.0 cells [1] (setting [3]), in the data set on AR 1.0 cells [1] (setting [4]) and in the data set with AR 1.0 cells [2] were 6500 nM, 120 nM and 500 nM, respectively.
With `COc1cc2c(cc1OC)CN(CCNC(=O)c1ccccc1NC(=O)c1cc3ccccc3cn1)CC2` [compound 9389, Isoquinoline-3-carboxylic acid {2-[2-(6,7-dimethoxy-3,4-dihydro-1H-isoquinolin-2-yl)-ethylcarbamoyl]-phenyl}-amide], the half-inhibitory concentration (IC50) came out at 30000 nM in the data set on AR 1.0 cells [1] (setting [3]) and 1800 nM with AR 1.0 cells [2].
In the case of `COc1cc2c(cc1OC)CN(CCNC(=O)c1ccccc1NC(=O)c1ccccc1)CC2` [compound 9351, 2-Benzoylamino-N-[2-(6,7-dimethoxy-3,4-dihydro-1H-isoquinolin-2-yl)-ethyl]-benzamide], the 50% inhibitory concentration (IC50) in the data set with AR 1.0 cells [1] (setting [3]) came to 43000 nM; with AR 1.0 cells [1] (setting [4]), 1300 nM; with AR 1.0 cells [2], 9000 nM.
Taken in the same sequence, the figures for `COc1cc2c(cc1OC)CN(CCc1ccc(NC(=O)c3ccccc3NC(=O)c3cccc(OC(C)=O)c3)cc1)CC2` [compound 9540, Acetic acid 3-(2-{4-[2-(6,7-dimethoxy-3,4-dihydro-1H-isoquinolin-2-yl)-ethyl]-phenylcarbamoyl}-phenylcarbamoyl)-phenyl ester] were 6200 nM, 1000 nM and 1200 nM.
As for `CCN(CC)c1ccc(C(=O)Nc2ccccc2C(=O)NCCN2CCc3cc(OC)c(OC)cc3C2)cc1` [compound 9310, 2-(4-Diethylamino-benzoylamino)-N-[2-(6,7-dimethoxy-3,4-dihydro-1H-isoquinolin-2-yl)-ethyl]-benzamide], the half-inhibitory concentration (IC50) was 22000 nM in the data set with AR 1.0 cells [1] (setting [3]), 240 nM with AR 1.0 cells [1] (setting [4]) and 1200 nM in the data set on AR 1.0 cells [2].
With `COc1cc2c(cc1OC)CN(CCc1ccc(NC(=O)c3ccccc3NC(=O)c3cccnc3)cc1)CC2` [compound 9482, N-(2-{4-[2-(6,7-Dimethoxy-3,4-dihydro-1H-isoquinolin-2-yl)-ethyl]-phenylcarbamoyl}-phenyl)-nicotinamide], the half-inhibitory concentration (IC50) amounted to 12000 nM in the data set on AR 1.0 cells [1] (setting [3]), 220 nM with AR 1.0 cells [1] (setting [4]) and 540 nM with AR 1.0 cells [2].
Consider `COc1cc2c(cc1OC)CN(CCc1ccc(NC(=O)c3ccccc3NC(=O)c3cccc(O)c3)cc1)CC2` [compound 9549, 2-(3-Hydroxy-benzoylamino)-N-{4-[2-(6,7-dimethoxy-3,4-dihydro-1H-isoquinolin-2-yl)-ethyl]-phenyl}-benzanlide], for which the half-inhibitory concentration (IC50) in the data set with AR 1.0 cells [1] (setting [3]) was found to be 5600 nM; with AR 1.0 cells [1] (setting [4]), 520 nM; with AR 1.0 cells [2], 4300 nM.
